Experimental data from patent US9187428B2, “Substituted dicyanopyridines and use thereof” (Bayer Intellectual Property GmbH, priority 2010, dated 2015).
≈ marks a conversion by molar mass, not a printed value. Structures can show the parent of a compound that is named as a salt. Where two headings read alike, the source gives them in different places.

Legend:
[1] = Determination of the solubility; format: physicochemical; details: kinetic from dmso stock
Method: B-8. Determination of the Solubility
• PBS buffer pH 6.5: 90.00 g of NaCl p.a. (for example from Merck, Art. No. 1.06404.1000), 13.61 g of KH2PO4 p.a. (for example from Merck, Art. No. 1.04873.1000) and 83.35 g of 1 N aqueous sodium hydroxide solution (for example from Bernd Kraft GmbH, Art. No. 01030.4000) are weighed into a 1 liter measuring flask, the flask is filled with distilled water to 1 liter and the mixture is stirred for 1 hour. Using 1 N hydrochloric acid (for example from Merck, Art. No. 1.09057.1000) the pH is then adjusted to 6.5. • PEG/water solution (30:70 v/v): 30 ml of polyethylene glycol 400 (for example from Merck, Art. No. 8.17003.1000) and 70 ml of distilled water are homogenized in a 100 ml measuring flask. • PEG/PBS buffer pH 6.5 (80:20 v/v): 80 ml of polyethylene glycol 400 (for example from Merck, Art. No. 8.17003.1000) and 20 ml of PBS buffer pH 6.5 are homogenized in a 100 ml measuring flask. • Dimethyl sulfoxide (for example from Baker, Art. No. 7157.2500) • Distilled water. Preparation of the Starting Solution (Original Solution):
At least 4 mg of the test substance are weighed accurately into a wide-necked 10 mm screw V vial (from Glastechnik Gräfenroda GmbH, Art. No. 8004-WM-H/V15μ) with fitting screw cap and septum, in a pipetting robot DMSO is added to a concentration of 50 mg/ml and the mixture is shaken for 10 minutes.
Preparation of the Calibration Solutions:
Preparation of the Starting Solution for Calibration Solutions (Stock Solution):
With the aid of a pipetting robot, 10 μl of the original solution are transferred into a microtiter plate and made up with DMSO to a concentration of 600 μg/ml. The sample is shaken until everything has gone into solution.
Calibration Solution 1 (20 μg/ml):
1000 μl of DMSO are added to 34.4 μl of the stock solution, and the mixture is homogenized.
Calibration Solution 2 (2.5 μg/ml):
700 μl of DMSO are added to 100 μl of calibration solution 1, and the mixture is homogenized.
Preparation of the Sample Solutions:
Sample Solution for Solubilities of Up to 5 g/liter in PBS Buffer pH 6.5:
10 μl of the original solution are transferred into a microtiter plate, and 1000 μl of PBS buffer pH 6.5 are added.
Sample Solution for Solubilities of Up to 5 g/liter in PEG/Water (30:70):
10 μl of the original solution are transferred into a microtiter plate, and 1000 μl of PEG/water (30:70) are added.
Sample Solution for Solubilities of Up to 5 g/liter in PEG/PBS Buffer pH 6.5 (80:20):
10 μl of the original solution are transferred into a microtiter plate, and 1000 μl of PEG/PBS buffer pH 6.5 (80:20) are added.
The sample solutions prepared in this manner are shaken at 1400 rpm in a temperature-adjustable shaker (for example Eppendorf Thermomixer comfort Art. No. 5355 000.011 with interchangeable block Art. No. 5362.000.019) at 20° C. for 24 hours. In each case 180 μl are taken from these solutions and transferred into Beckman Polyallomer Centrifuge Tubes (Art. No. 343621). These solutions are centrifuged at about 223 000×g for one hour (for example Beckman Optima L-90K Ultracentrifuge with Type 42.2 Ti Rotor at 42 000 rpm). From each of the sample solutions, 100 μl of the supernatant are removed and diluted 1:5 and 1:100 with DMSO. From each dilution, a sample is transferred into a vessel suitable for HPLC analysis.
The samples are analyzed by RP-HPLC. Quantification is carried out using a two-point calibration curve of the test compound in DMSO. The solubility is expressed in mg/liter. Analysis sequence: 1) calibration solution […]; 2) calibration solution […]; 3) sample solution 1:5; 4) sample solution 1:100. […]

A1 receptor = A1 receptor (Rattus norvegicus (Rat), UniProt P25099); assay: A1 receptor GTP shift binding assay with rat brain membranes and [3H]DPCPX; details: rat brain membranes, 0.4 nM [3H]DPCPX, presence and absence of 1 mM GTP
Sequence of A1 receptor (P25099 whole entry): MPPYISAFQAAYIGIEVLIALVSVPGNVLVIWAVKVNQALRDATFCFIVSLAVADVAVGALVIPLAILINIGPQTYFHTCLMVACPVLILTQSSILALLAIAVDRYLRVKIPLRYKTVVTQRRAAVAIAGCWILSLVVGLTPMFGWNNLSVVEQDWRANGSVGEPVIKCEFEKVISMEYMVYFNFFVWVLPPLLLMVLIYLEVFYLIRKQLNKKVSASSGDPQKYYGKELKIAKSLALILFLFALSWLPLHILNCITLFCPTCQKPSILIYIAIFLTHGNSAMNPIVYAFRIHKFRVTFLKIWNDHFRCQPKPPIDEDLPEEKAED
Method: B-6. GTP Shift Experiment
Preparation of the Brain Membrane
The brains of male Wistar rats are removed and immediately transferred into an ice-cooled 0.32 mol/l sucrose solution. The tissue is comminuted using a glass-Teflon homogenizer and then centrifuged (1000×g for 10 minutes). The supernatant is then ultracentrifuged at 30 000 g for 30 minutes. The pellet obtained in this manner is resuspended in 10 ml of water and allowed to stand on ice for 30 minutes. After a final centrifugation step at 48 000 g for 10 min, the membranes are resuspended in 50 mmol/l Tris-HCl buffer, pH 7.4, and incubated with 2 U/ml of adenosine deaminase at 37° C. for 30 min. This is followed by a protein determination according to Bradford. The membranes are frozen in small aliquots and stored at −80° C. until required for the binding assay.
The A1 receptor GTP shift binding assay is carried out using rat brain membranes and 0.4 nM [^3H] […] 10 μg of membrane protein are incubated at 37° C. for 20 min with 0.4 nM [^3H]DPCPX and adenosine A1 agonists in various concentrations in buffer (50 mM tris-HCl, pH 7.4, 2 U/ml ADA) in the presence and absence of 1 mM guanosine triphosphate (GTP). […] The radioactivity on the filter is measured with addition of 100 μl of scintillation cocktail in a Microbeta TriLux beta counter (PerkinElmer, Massachusetts, USA). […]

adenosine A2a receptor = adenosine A2a receptor (Homo sapiens (Human), UniProt P29274); assay: Indirect determination of adenosine agonism by gene expression (luciferase reporter), A2a cells; format: cell-based; details: CHO cells stably transfected with adenosine A2a receptor, 50% of maximum stimulation
Sequence of adenosine A2a receptor (P29274 whole entry): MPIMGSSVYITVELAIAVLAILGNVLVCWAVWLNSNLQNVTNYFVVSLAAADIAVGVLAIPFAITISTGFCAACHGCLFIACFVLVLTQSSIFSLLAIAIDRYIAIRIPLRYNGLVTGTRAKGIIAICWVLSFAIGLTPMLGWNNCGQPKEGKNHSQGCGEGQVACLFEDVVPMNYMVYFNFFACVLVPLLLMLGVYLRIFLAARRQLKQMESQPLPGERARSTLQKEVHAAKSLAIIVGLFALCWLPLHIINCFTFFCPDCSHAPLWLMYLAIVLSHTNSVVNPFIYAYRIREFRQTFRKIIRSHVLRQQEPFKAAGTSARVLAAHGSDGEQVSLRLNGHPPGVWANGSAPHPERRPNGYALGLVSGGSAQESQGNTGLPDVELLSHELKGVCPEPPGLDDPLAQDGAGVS
Text: (§1) B-1. Indirect Determination of the Adenosine Agonism by Way of Gene Expression
(§2) Cells of the CHO (Chinese Hamster Ovary) permanent line are transfected stably with the cDNA for the adenosine receptor subtypes A1, A2a and A2b. The adenosine A1 receptors are coupled to the adenylate cyclase by way of Gi proteins, while the adenosine A2a and A2b receptors are coupled by way of Gs proteins. In correspondence with this, the formation of cAMP in the cell is inhibited or stimulated, respectively. After that, expression of the luciferase is modulated by way of a cAMP-dependent promoter. The luciferase test is optimized, with the aim of high sensitivity and reproducibility, low variance and good suitability for implementation on a robot system, by varying several test parameters, such as cell density, duration of the growth phase and the test incubation, forskolin concentration and medium composition. The following test protocol is used for pharmacologically characterizing cells and for the robot-assisted substance screening:
(§3) The stock cultures are grown, at 37° C. and under 5% CO2, in DMEM/F12 medium containing 10% FCS (fetal calf serum) and in each case split 1:10 after 2-3 days. Test cultures are seeded in 384-well plates with 2000 cells per well and grown at 37° C. for approx. 48 hours. The medium is then replaced with a physiological sodium chloride solution (130 mM sodium chloride, 5 mM potassium chloride, 2 mM calcium chloride, 20 mM HEPES, 1 mM magnesium chloride hexahydrate, 5 mM sodium bicarbonate, pH 7.4). The substances to be tested, which are dissolved in DMSO, are pipetted into the test cultures (maximum final concentration of DMSO in the test mixture: 0.5%) in a dilution series of from 5×10^−11 M to 3×10^−6 M (final concentration). 10 minutes later, forskolin is added to the A1 cells and all the cultures are subsequently incubated at 37° C. for four hours. After that, 35 μl of a solution which is composed of 50% lysis reagent (30 mM disodium hydrogenphosphate, 10% glycerol, 3% TritonX100, 25 mM TrisHCl, 2 mM dithiotreitol (DTT), pH 7.8) and 50% luciferase substrate solution (2.5 mM ATP, 0.5 mM luciferin, 0.1 mM coenzyme A, 10 mM tricine, 1.35 mM magnesium sulfate, 15 mM DTT, pH 7.8) are added to the test cultures, which are shaken for approx. 1 minute and the luciferase activity is measured using a camera system. The EC50 values are determined, i.e., the concentrations at which 50% of the luciferase response is inhibited in the case of the A1 cell, and, respectively, 50% of the maximum stimulation with the corresponding substance is achieved in the case of the A2b and A2a cells. […] Pharmacol., 357, 1-9 (1998)].
(§4) Table A below lists the EC50 values of representative working examples for the receptor stimulation on adenosine A1, A2a and A2b receptor subtypes: […]

adenosine A2b receptor = adenosine A2b receptor (Homo sapiens (Human), UniProt P29275); assay: Indirect determination of adenosine agonism by gene expression (luciferase reporter), A2b cells; format: cell-based; details: CHO cells stably transfected with adenosine A2b receptor, 50% of maximum stimulation
Sequence of adenosine A2b receptor (P29275 whole entry): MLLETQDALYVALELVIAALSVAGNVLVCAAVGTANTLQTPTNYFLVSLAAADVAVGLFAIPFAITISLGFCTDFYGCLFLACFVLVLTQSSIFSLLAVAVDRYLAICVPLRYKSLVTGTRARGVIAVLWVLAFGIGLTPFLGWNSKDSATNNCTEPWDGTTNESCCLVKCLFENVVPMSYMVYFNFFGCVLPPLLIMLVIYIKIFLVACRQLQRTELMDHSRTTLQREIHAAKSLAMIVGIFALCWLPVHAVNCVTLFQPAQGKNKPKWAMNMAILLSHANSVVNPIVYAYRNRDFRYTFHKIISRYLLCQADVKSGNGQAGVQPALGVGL
Text: as §1, §2, §3, §4

adenosine A1 receptor = adenosine A1 receptor (Homo sapiens (Human), UniProt P30542); assay: Indirect determination of adenosine agonism by gene expression (luciferase reporter), A1 cells; format: cell-based; details: CHO cells stably transfected with adenosine A1 receptor; 1 μM forskolin; 50% inhibition of luciferase response
Sequence of adenosine A1 receptor (P30542 whole entry): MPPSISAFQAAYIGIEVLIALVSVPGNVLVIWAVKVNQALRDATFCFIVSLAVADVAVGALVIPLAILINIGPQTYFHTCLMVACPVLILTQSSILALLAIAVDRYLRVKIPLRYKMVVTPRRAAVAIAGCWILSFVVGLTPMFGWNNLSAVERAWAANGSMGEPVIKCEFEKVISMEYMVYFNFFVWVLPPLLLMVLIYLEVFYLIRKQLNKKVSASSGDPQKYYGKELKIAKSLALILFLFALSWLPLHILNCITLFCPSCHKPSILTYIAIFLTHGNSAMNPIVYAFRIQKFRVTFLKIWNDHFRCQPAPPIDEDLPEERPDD
Text: as §1, §2, §3, §4

[2] = PEG 400/water solution (30:70 v/v), aqueous with cosolvent or surfactant or cyclodextrin, PEG 400/water (30:70 v/v), 20° C., read-out: Solubility [mg/liter] PEG/water solution (30:70 v/v)
[3] = aqueous buffer, PBS buffer pH 6.5, 20° C., read-out: Solubility [mg/liter] PBS buffer

Compound	solubility at 24 h [1, 2] [mg/L]	GTP Shift (A1 receptor)	EC50 (adenosine A2a receptor) [nM]	EC50 (adenosine A2b receptor) [nM]	EC50 (adenosine A1 receptor) [nM]	solubility at 24 h [1, 3] [mg/L]
CC(Sc1nc(N)c(C#N)c(-c2ccc(OCCO)cc2)c1C#N)c1cccc(C(N)=O)c1 (single isomer, unassigned) [Example 61, 3-[1-({6-Amino-3,5-dicyano-4-[4-(2-hydroxyethoxy)phenyl]pyridin-2-yl}sulfanyl)ethyl]benzenecarboxamide]	90 (≈ 196 µM)	1.5				
COCCOc1ccc(-c2c(C#N)c(N)nc(SC(C)c3cccc(C(N)=O)c3)c2C#N)cc1 (single isomer, unassigned) [Example 64, 3-[1-({6-Amino-3,5-dicyano-4-[4-(2-methoxyethoxy)phenyl]pyridin-2-yl}sulfanyl)ethyl]benzenecarboxamide]	260 (≈ 549 µM)	2.8				
N#Cc1c(N)nc(SCc2ccnc(C(=O)NC3CC3)c2)c(C#N)c1-c1ccccc1 [Example 13]	210 (≈ 492 µM)		108	46	0.08	
N#Cc1c(N)nc(SCc2cccc(C(N)=O)c2)c(C#N)c1-c1ccccc1 [Example 33]	53 (≈ 138 µM)		117	3.9	0.3	5 (≈ 13 µM)
CNC(=O)c1cc(CSc2nc(N3CC(O)C3)c(C#N)c(-c3ccccc3)c2C#N)ccn1 [Example 70, 4-({[3,5-Dicyano-6-(3-hydroxyazetidin-1-yl)-4-phenylpyridin-2-yl]sulfanyl}methyl)-N-methylpyridine-2-carboxamide]			272	1450	0.2	
CNC(=O)c1cc(CSc2nc(N(C)CCO)c(C#N)c(-c3ccccc3)c2C#N)ccn1 [Example 75, 4-[({3,5-Dicyano-6-[(2-hydroxyethyl)(methyl)amino]-4-phenylpyridin-2-yl}sulfanyl)methyl]-N-methylpyridine-2-carboxamide]			1010	175	0.2	
CNC(=O)c1cc(CSc2nc(NCCO)c(C#N)c(-c3ccc(OCCO)nc3)c2C#N)ccn1 [Example 78]			355	393	0.1	
CNC(=O)c1cc(CSc2nc(NC[C@H](O)CO)c(C#N)c(-c3ccccc3)c2C#N)ccn1 [Example 83]			2180	593	0.2	
CCNC(=O)c1cccc(CSc2nc(N3CCCC3)c(C#N)c(-c3ccc(OCCO)cc3)c2C#N)c1 [Example 98, 3-[({3,5-Dicyano-4-[4-(2-hydroxyethoxy)phenyl]-6-pyrrolidin-1-ylpyridin-2-yl}sulfanyl)methyl]-N-ethylbenzenecarboxamide]			1540	600	0.3	
N#Cc1c(NC[C@@H](O)CO)nc(SCc2cccc(C(N)=O)c2)c(C#N)c1-c1ccccc1 [Example 99, 3-{[(3,5-Dicyano-6-{[(2R)-2,3-dihydroxypropyl]amino}-4-phenylpyridin-2-yl)sulfanyl]methyl}-benzenecarboxamide]	440 (≈ 957 µM)				0.9	9 (≈ 19.6 µM)
N#Cc1c(N)nc(SCc2cccc(C(=O)NCCN)c2)c(C#N)c1-c1ccccc1 [Example 101, 3-{[(6-Amino-3,5-dicyano-4-phenylpyridin-2-yl)sulfanyl]methyl}-N-(2-aminoethyl)benzenecarboxamide hydrochloride]			440	163	0.2	
